In brackets after ≈: the same amount, converted by molar mass. Read-outs that look alike come from different tables or passages of the source.
Legend:
M. catarrhalis = experiment: MIC, broth microdilution; type: cell-based, Moraxella catarrhalis; settings: Moraxella catarrhalis; M. catarrhalis 13L332, Ery-S; read-out: MIC
Experimental: MICs were determined by the microdilution method according to the Clinical and Laboratory Standards Institute guidelines. Briefly, the stock solution of compounds and the reference antibiotics were diluted 2-fold in sterile 96-well plates with cation-adjusted Mueller-Hinton broth, and mixed with CAMHB-containing bacteria to give a final inoculum of 5 × 10^5 CFU/mL for broth microdilution experiments. […] Finally, the 96-well plates were incubated at 37 °C for 16–20 h to observe and record the results. The lowest concentration at which no bacterial growth could be observed visually was identified as the MICs of the compounds. The assay for MICs was replicated at least three times.

[1] = CCK-8 assay for cytotoxicity; type: cell-based, human; settings: human, HEK293T cells, HEK293T cell viability
Experimental: HepG2 cells (6 × 10^3) and HEK293T cells (4 × 10^3) were seeded into 96-well plates in 90 μL of DMEM medium containing 10% FBS per well. […] After overnight incubation, the test compound stock solution was diluted with DMEM medium containing 10% FBS to every target concentration, and 10 μL of each was added to each well. Three parallel experiments were set up for each compound. After incubation for 48 h, 10 μL of cell counting kit-8 (CCK-8) reagent was added to each well in sequence according to the manufacturer’s instructions. […] This experiment was independently repeated three times. The data were processed by GraphPad Prism.

WT S. aureus ribosomes = experiment: PURE in vitro translation inhibition assay; type: biochemical, Staphylococcus aureus; settings: mean ± SD
Experimental: (§1) To validate the in vitro activity of our compounds, we employed an in vitro reconstituted E. coli Protein synthesis Using a Recombinant Elements (PURE) translation system, substituting E. coli ribosomes with the purified S. aureus ribosomes.
(§2) 5 μL of PURE reaction mix that translates a gene encoding the Nanoluc luciferase was set up in the presence or absence of tested compounds. Protein synthesis was initiated by incubating reactions at 37 °C for 60 min and stopped by placing on ice for 5 min. Luciferase activity was quantified using the Nano-Glo luciferase assay system and read on a GloMax 20/20 luminometer (Promega, USA). For each compound, the in vitro translation inhibition assay was performed in three biological triplicates over a range of concentrations from 0.001 μM to 1000 μM. A compound-free control was used to normalize luminescence measurements. The calculated luminescence percentages were plotted against compound concentrations on a semilog scale using GraphPad Prism.

[2] = system: 15B196 S. aureus ribosomes (A2058-methylated); experiment: PURE in vitro translation inhibition assay; type: biochemical, Staphylococcus aureus; settings: mean ± SD
Experimental: as §1, §2

S. aureus = experiment: MIC, broth microdilution; type: cell-based, Staphylococcus aureus
Method in brief: (§3)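 Read-out is the lowest concentration without observed growth after 16–20 h at 37 °C, using the CLSI broth microdilution method.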

S. pneumoniae = experiment: MIC, broth microdilution; type: cell-based, Streptococcus pneumoniae
Method in brief: as §3

S. pyogenes = experiment: MIC, broth microdilution; type: cell-based, Streptococcus pyogenes
Method in brief: as §3

[3] = Staphylococcus aureus, All S. aureus (24)
[4] = Staphylococcus aureus, i-MLSB S. aureus (10)

Work on `CC[C@H]1OC(=O)[C@H](C)C(=O)[C@H](C)[C@@H](O[C@@H]2O[C@H](C)C[C@H](N(C)C)[C@H]2O)[C@](C)(OC)C[C@@H](C)C(=O)[C@H](C)[C@H]2N(CCCCn3cnc(-c4cccnc4)c3)C(=O)O[C@]12C` [telithromycin, reference compound] yielded an MIC (M. catarrhalis) of 0.25 µg/mL (≈ 0.308 µM), a CC50 at 48 h [1] of over 100 µM and an IC50 (WT S. aureus ribosomes) of 0.38 ± 0.13 µM. For the same compound, the IC50 [2] was over 10 µM, the MIC (S. aureus; S. aureus 15B196, Clinical, MRSA, c-ermB) was 128 µg/mL (≈ 158 µM) and the MIC (S. aureus; S. aureus 15B196, c-ermB) was 32 µg/mL (≈ 39.4 µM). The MIC (S. aureus; S. aureus 21B200, Clinical, MRSA, c-ermB) was over 256 µg/mL, the MIC (S. aureus; S. aureus 21B207, Clinical, MRSA, c-ermB) was over 256 µg/mL and the MIC (S. aureus; S. aureus 21B212, Clinical, MSSA, i-ermC) was 0.25 µg/mL (≈ 0.308 µM). For the same compound, the MIC (S. aureus; S. aureus 21C173, Clinical, MSSA, i-ermC) was 0.25 µg/mL (≈ 0.308 µM), the MIC (S. aureus; S. aureus 21C174, Clinical, MSSA, c-ermB) was over 256 µg/mL and the MIC (S. aureus; S. aureus 21C187, Clinical, MRSA, i-ermA) was 0.12 µg/mL (≈ 0.148 µM). For the same compound, the MIC (S. aureus; S. aureus 21D112, Clinical, MSSA, c-ermB) was over 256 µg/mL, the MIC (S. aureus; S. aureus 21D115, Clinical, MSSA, i-ermC) was 0.12 µg/mL (≈ 0.148 µM) and the MIC (S. aureus; S. aureus 21F198, Clinical, MRSA, c-ermB) was over 256 µg/mL. The MIC (S. aureus; S. aureus 21F206, Clinical, MSSA, c-ermB) was over 256 µg/mL, the MIC (S. aureus; S. aureus 21F207, Clinical, MRSA, i-ermC) was 0.25 µg/mL (≈ 0.308 µM) and the MIC (S. aureus; S. aureus 21K194, Clinical, MSSA, i-ermC) was 0.25 µg/mL (≈ 0.308 µM). The MIC (S. aureus; S. aureus 21N354, Clinical, MRSA, c-ermB) was 128 µg/mL (≈ 158 µM), the MIC (S. aureus; S. aureus 21P191, Clinical, MSSA, c-ermC) was over 256 µg/mL and the MIC (S. aureus; S. aureus 21P404, Clinical, MSSA, i-ermC) was 0.5 µg/mL (≈ 0.616 µM). For the same compound, the MIC (S. aureus; S. aureus 21P407, Clinical, MRSA, c-ermB) was over 256 µg/mL, the MIC (S. aureus; S. aureus 21Q253, Clinical, MRSA, c-ermB) was 16 µg/mL (≈ 19.7 µM) and the MIC (S. aureus; S. aureus 21R216, Clinical, MSSA, c-ermC) was over 256 µg/mL. For the same compound, the MIC (S. aureus; S. aureus 21T141, Clinical, MRSA, c-ermB) was over 256 µg/mL, the MIC (S. aureus; S. aureus 21X388, Clinical, i-ermA (MRSA in Table S9, MSSA in Fig. 2a)) was 0.25 µg/mL (≈ 0.308 µM) and the MIC (S. aureus; S. aureus 21Y223, Clinical, MRSA, i-ermC) was 0.25 µg/mL (≈ 0.308 µM). It also gave an MIC (S. aureus; S. aureus ATCC29213) of 0.25 µg/mL (≈ 0.308 µM), an MIC (S. aureus; S. aureus PU32, Clinical, MRSA, i-ermA) of 0.12 µg/mL (≈ 0.148 µM) and an MIC50 (S. aureus; [3]) of 16 µg/mL (≈ 19.7 µM). It also gave an MIC90 (S. aureus; [3]) of over 256 µg/mL, an MIC50 (S. aureus; Staphylococcus aureus, MRSA, MRSA (13)) of 128 µg/mL (≈ 158 µM) and an MIC50 (S. aureus; Staphylococcus aureus, MSSA, MSSA (10)) of 0.5 µg/mL (≈ 0.616 µM). For the same compound, the MIC (S. aureus; Staphylococcus aureus, S. aureus 15B196, c-ermB, read-out: MIC) was 64 µg/mL (≈ 78.8 µM), the MIC50 (S. aureus; Staphylococcus aureus, c-MLSB (constitutive) S. aureus (13)) was over 256 µg/mL and the MIC50 (S. aureus; [4]) was 0.25 µg/mL (≈ 0.308 µM). For the same compound, the MIC90 (S. aureus; [4]) was 0.25 µg/mL (≈ 0.308 µM), the MIC90 (S. aureus; Staphylococcus aureus, MRSA (13)) was over 256 µg/mL and the MIC90 (S. aureus; Staphylococcus aureus, MSSA (10)) was over 256 µg/mL. The MIC (S. pneumoniae; S. pneumoniae 21C315, Clinical, c-ermB) was 0.12 µg/mL (≈ 0.148 µM), the MIC (S. pneumoniae; S. pneumoniae 21D016, Clinical, c-ermB, mef) was 0.25 µg/mL (≈ 0.308 µM) and the MIC (S. pneumoniae; S. pneumoniae 21D020, Clinical, c-ermB, mef) was 0.25 µg/mL (≈ 0.308 µM). The MIC (S. pneumoniae; S. pneumoniae 21M277, Clinical, c-ermB) was 0.12 µg/mL (≈ 0.148 µM), the MIC (S. pneumoniae; S. pneumoniae 21Q352, Clinical, i-MLSB) was 0.06 µg/mL (≈ 0.0739 µM) and the MIC (S. pneumoniae; S. pneumoniae 21Q353, Clinical, i-MLSB) was 0.03 µg/mL (≈ 0.0369 µM). It also gave an MIC (S. pneumoniae; S. pneumoniae 21W257, Clinical, c-ermB, mef) of 0.12 µg/mL (≈ 0.148 µM), an MIC (S. pneumoniae; S. pneumoniae 21X435, Clinical) of 0.016 µg/mL (≈ 0.0197 µM) and an MIC (S. pneumoniae; S. pneumoniae ATCC49619) of 0.008 µg/mL (≈ 0.00985 µM). For the same compound, the MIC (S. pneumoniae; S. pneumoniae PU09, mef) was 1 µg/mL (≈ 1.23 µM), the MIC (S. pneumoniae; Streptococcus pneumoniae, S. pneumoniae 05O173, c-ermB, mef, read-out: MIC) was 4 µg/mL (≈ 4.93 µM) and the MIC (S. pneumoniae; Streptococcus pneumoniae, S. pneumoniae PU09, mef, read-out: MIC) was 0.5 µg/mL (≈ 0.616 µM). It also gave an MIC (S. pyogenes; S. pyogenes 01-968, Clinical, i-ermB) of 0.016 µg/mL (≈ 0.0197 µM), an MIC (S. pyogenes; S. pyogenes 12-207, Clinical, mef) of 0.5 µg/mL (≈ 0.616 µM) and an MIC (S. pyogenes; S. pyogenes 21C303, Clinical, c-ermB) of 16 µg/mL (≈ 19.7 µM). For the same compound, the MIC (S. pyogenes; S. pyogenes 21D184, Clinical, c-ermB) was 8 µg/mL (≈ 9.85 µM), the MIC (S. pyogenes; S. pyogenes 21D199, Clinical, c-ermB) was 8 µg/mL (≈ 9.85 µM) and the MIC (S. pyogenes; S. pyogenes 21D200, Clinical, c-ermB) was 16 µg/mL (≈ 19.7 µM). The MIC (S. pyogenes; S. pyogenes 21K003, Clinical, mef) was 1 µg/mL (≈ 1.23 µM), the MIC (S. pyogenes; S. pyogenes 21M063, Clinical, c-ermB) was 16 µg/mL (≈ 19.7 µM) and the MIC (S. pyogenes; S. pyogenes 21W186, Clinical, c-ermTR) was 8 µg/mL (≈ 9.85 µM).

Source: PMC11239830, “Synthetic macrolides overcoming MLSBK-resistant pathogens” (Cell Discovery, 2024)
